Data set [1] relates to Mycobacterium avium ATCC700898. As to the kind of experiment: Determination of IC85 against M. avium (resazurin fluorescence). It counts as cell-based. Conditions: 37° C., 3 days incubation then resazurin, fluorescence one day later. On the technique in general: Alamar Blue is a resazurin reagent that responds to reducing activity.
The nature of data set [2]: Metabolic stability test in pooled human liver microsomes. The settings on record: human liver microsomes 0.5 mg protein/mL, 1 mmol/L NADPH, 37° C., 30 minutes. It counts as in vitro ADME. The procedure:
Using a commercially available pooled human liver microsomes, a compound of the present invention was reacted for a constant time, a remaining rate was calculated by comparing a reacted sample and an unreacted sample, thereby, a degree of metabolism in liver was assessed.
A reaction was performed (oxidative reaction) at 37° C. for 0 minute or 30 minutes in the presence of 1 mmol/L NADPH in 0.2 mL of a buffer (50 mmol/L Tris-HCl pH 7.4, 150 mmol/L potassium chloride, 10 mmol/L magnesium chloride) containing 0.5 mg protein/mL of human liver microsomes. After the reaction, 50 μL of the reaction solution was added to 100 μL of a methanol/acetonitrile=1/1 (v/v), mixed and centrifuged at 3000 rpm for 15 minutes. The compound of the present invention in the supernatant was quantified by LC/MS/MS or solid phase extraction (SPE)/MS, and a remaining amount of the compound of the present invention after the reaction was calculated, letting a compound amount at 0 minute reaction time to be 100%.
On the technique in general: Liver microsomes are vesicles of endoplasmic reticulum, rich in cytochrome P450 enzymes.

[3] abbreviates: Mycobacterium avium, ATCC700898, M. avium ATCC700898, CAMHB medium, read-out: IC85.
Where [4] appears, read: M. avium ATCC700898, CAMHB medium.

Read-outs that look alike come from different tables or passages of the source.

This note sets out measurements from patent publication US20220340566A1, “BENZYL AMINE-CONTAINING 5,6-HETEROAROMATIC COMPOUNDS USEFUL AGAINST MYCOBACTERIAL INFECTION” (priority 2019, published 2022).

Regarding `Cc1ccn2c(C(=O)NCc3ccc(C4CCN(c5cccc(OC(F)(F)F)c5)CC4)c(F)c3)c(C)nc2c1` [Compound I-1-19], in data set [1] (setting [3]), the IC85 turned out to be 130 nM. The “MS_h_% (remaining amount of compound after reaction, 0 minute = 100%)” value in data set [2] is 87%.
For `CCc1nc2ccc(Cl)cn2c1C(=O)NCc1ccc(C2CCN(c3ccc(OC(F)(F)F)cc3)CC2)c(F)c1` [Compound I-1-20] the same measures were 33 nM and 83%.
In the same order, the values of `Cc1ccn2c(C(=O)NCc3ccc(C4CCN(c5ccc(OCC(F)(F)F)cc5)CC4)c(F)c3)c(C)nc2c1` [Compound I-1-21] are 38 nM and 89%.
In the same order, the values of `Cc1ccn2c(C(=O)NCc3ccc(C4CCN(c5ccc(OC(F)(F)F)cc5F)CC4)c(F)c3)c(C)nc2c1` [Compound I-1-22] are 28 nM and 87%.
Regarding `Cc1ccn2c(C(=O)NCc3ccc(N4CCN(c5ccc(OC(F)(F)F)cc5)[C@@H](C)C4)c(F)c3)c(C(F)(F)F)nc2c1` [Compound I-1-23], the IC85 in data set [1] (setting [3]) turned out to be 45 nM. The “MS_h_% (remaining amount of compound after reaction, 0 minute = 100%)” value in data set [2] is reported as 85%.
The compound `C[C@H]1CN(c2ccc(CNC(=O)c3c(C(F)(F)F)nc4ccc(Cl)cn34)cc2F)CCN1c1ccc(OC(F)(F)F)cc1` [Compound I-1-24] came in with an IC85 in data set [1] (setting [4]) of 32 nM. Further, the “MS_h_% (remaining amount of compound after reaction, 0 minute = 100%)” value in data set [2] worked out at 62%.
Regarding `Cc1ccc2nc(C)c(C(=O)NCc3ccc(N4CCN(c5ccc(OC(F)(F)F)cc5)[C@@H](C)C4)c(F)c3)n2c1` [Compound I-1-25], the IC85 in data set [1] (setting [3]) worked out at 2.2 nM. Also, the “MS_h_% (remaining amount of compound after reaction, 0 minute = 100%)” value in data set [2] is listed as 72%.
For `Cc1nc2ccc(F)cn2c1C(=O)NCc1ccc(N2CCN(c3ccc(OC(F)(F)F)cc3)[C@@H](C)C2)c(F)c1` [Compound I-1-26] the same measures were 15 nM and 93%.
In the same order, the values of `Cc1cc2nc(C)c(C(=O)NCc3ccc(N4CCN(c5ccc(OC(F)(F)F)cc5)[C@@H](C)C4)c(F)c3)n2cc1Cl` [Compound I-1-27] are 33 nM and 80%.
In the same order, the values of `CCc1nc2ccc(Cl)cn2c1C(=O)NCc1ccc(N2CCN(c3ccc(OC(C)C)cc3)C(C)(C)C2)c(F)c1` [Compound I-1-28] are 12 nM and 94%.
Compound `C[C@H]1CN(c2ccc(CNC(=O)c3c(C(F)(F)F)nc4ccc(Cl)cn34)cc2F)CCN1c1ccc(OC(F)(F)F)cc1` [Compound I-1-29] yielded an IC85 in data set [1] (setting [4]) of 2.7 nM. Besides, the “MS_h_% (remaining amount of compound after reaction, 0 minute = 100%)” value in data set [2] was 89%.
For `O=C(NCc1ccc(C2CCN(c3ccc(OC(F)(F)F)cc3)CC2)c(F)c1)c1c(C(F)(F)F)nc2ccc(Cl)cn12` [Compound I-1-30] the same measures were 3.1 nM and 89%.
For `Cc1ccn2c(C(=O)NCc3ccc(N4CCN(c5ccc(OC(F)(F)F)cc5)C(C)(C)C4)c(F)c3)c(C)nc2c1` [Compound I-1-31], the IC85 in data set [1] (setting [3]) is 140 nM. The “MS_h_% (remaining amount of compound after reaction, 0 minute = 100%)” value in data set [2] was found to be 82%.
For `CCc1nc2ccc(Cl)cn2c1C(=O)NCc1ccc(N2CCN(c3ccc(OC(F)(F)F)cc3)C(C)(C)C2)c(F)c1` [Compound I-1-32] the same measures were 9.1 nM and 62%.
For `Cc1nc2ccc(F)cn2c1C(=O)NCc1ccc(N2CCN(c3ccc(OC(F)(F)F)cc3)C(C)(C)C2)c(F)c1` [Compound I-1-33] the same measures were 68 nM and 85%.
In the same order, the values of `CCc1nc2ccc(F)cn2c1C(=O)NCc1ccc(N2CCN(c3ccc(OC(F)(F)F)cc3)[C@@H](C)C2)c(F)c1` [Compound I-1-34] are 8 nM and 65%.
Take `CCc1nc2cc(Cl)ccn2c1C(=O)NCc1ccc(N2CCN(c3ccc(OC(F)(F)F)cc3)[C@@H](C)C2)c(F)c1` [Compound I-1-35]: the IC85 in data set [1] (setting [3]) came out at 26 nM. Further, the “MS_h_% (remaining amount of compound after reaction, 0 minute = 100%)” value in data set [2] is 91%.
For `CCc1nc2ccc(C#N)cn2c1C(=O)NCc1ccc(N2CCN(c3ccc(OC(F)(F)F)cc3)[C@@H](C)C2)c(F)c1` [Compound I-1-36] the same measures were 110 nM and 79%.
On to `Cc1nc2ccc(Cl)cn2c1C(=O)NCc1ccc(N2CCN(c3ccc(OC(F)(F)F)cc3)C[C@H]2C)c(F)c1` [Compound I-1-37], for which, in data set [1] (setting [3]), the IC85 was found to be 36 nM. For the same compound, the “MS_h_% (remaining amount of compound after reaction, 0 minute = 100%)” value in data set [2] turned out to be 76%.
In the same order, the values of `CCc1nc2cc(F)ccn2c1C(=O)NCc1ccc(N2CCN(c3ccc(OC(F)(F)F)cc3)[C@@H](C)C2)c(F)c1` [Compound I-1-38] are 1.3 nM and 90%.
Regarding `CCc1nc2ccc(Cl)cn2c1C(=O)NCc1ccc(N2C[C@H](C)N(c3ccc(OC(F)(F)F)cc3)C[C@H]2C)c(F)c1` [Compound I-1-39], the IC85 in data set [1] (setting [3]) amounted to 11 nM. In data set [2], the “MS_h_% (remaining amount of compound after reaction, 0 minute = 100%)” value turned out to be 75%.
In the same order, the values of `Cc1nc2ccc(Cl)cn2c1C(=O)NCc1ccc(N2C[C@H](C)N(c3ccc(OC(F)(F)F)cc3)C[C@H]2C)c(F)c1` [Compound I-1-40] are 22 nM and 89%.
For `Cc1ccn2c(C(=O)NCc3ccc(N4C[C@H](C)N(c5ccc(OC(F)(F)F)cc5)C[C@H]4C)c(F)c3)c(C)nc2c1` [Compound I-1-41] the same measures were 180 nM and 86%.
As to `CCc1nc2ccc(Cl)cn2c1C(=O)NCc1ccc(N2CCN(c3ccc(OC(F)(F)F)cc3)[C@@H](CC)C2)c(F)c1` [Compound I-1-42], in data set [1] (setting [3]), the IC85 came out at 9 nM. Moreover, the “MS_h_% (remaining amount of compound after reaction, 0 minute = 100%)” value in data set [2] is given as 59%.
For `CCOc1ccc(N2CCN(c3ccc(CNC(=O)c4c(CC)nc5ccc(Cl)cn45)cc3F)C[C@@H]2C)cc1` [Compound I-1-44], the IC85 in data set [1] (setting [3]) is 11 nM. Besides, in data set [2], the “MS_h_% (remaining amount of compound after reaction, 0 minute = 100%)” value was 69%.
In the same order, the values of `CCc1nc2ccc(Cl)cn2c1C(=O)NCc1ccc(N2CCN(c3ccc(OCC(F)(F)F)nc3)[C@@H](C)C2)c(F)c1` [Compound I-1-45] are 11 nM and 64%.
For `Cc1nc2cc(F)ccn2c1C(=O)NCc1ccc(N2CCN(c3ccc(OC(F)(F)F)cc3)[C@@H](C)C2)c(F)c1` [Compound I-1-46] the same measures were 2.6 nM and 96%.
For `Cc1cc2nc(C)c(C(=O)NCc3ccc(N4CCN(c5ccc(OC(F)(F)F)cc5)[C@@H](C)C4)c(F)c3)n2cc1F` [Compound I-1-47] the same measures were 110 nM and 85%.
Regarding `CCc1nc2cc(C)c(Cl)cn2c1C(=O)NCc1ccc(N2CCN(c3ccc(OC(F)(F)F)cc3)[C@@H](C)C2)c(F)c1` [Compound I-1-48], the IC85 in data set [1] (setting [3]) amounted to 35 nM. For the same compound, the “MS_h_% (remaining amount of compound after reaction, 0 minute = 100%)” value in data set [2] was 69%.
For `CCc1nc2cc(C)c(F)cn2c1C(=O)NCc1ccc(N2CCN(c3ccc(OC(F)(F)F)cc3)[C@@H](C)C2)c(F)c1` [Compound I-1-49] the same measures were 68 nM and 59%.
On to `Cc1nc2ccc(C#N)cn2c1C(=O)NCc1ccc(N2CCN(c3ccc(OC(F)(F)F)cc3)[C@@H](C)C2)c(F)c1.Cl` [Compound I-1-50], for which the IC85 in data set [1] (setting [3]) was determined as 500 nM. The “MS_h_% (remaining amount of compound after reaction, 0 minute = 100%)” value in data set [2] turned out to be 94%.
`Cc1nc2cc(Cl)ccn2c1C(=O)NCc1ccc(N2CCN(c3ccc(OC(F)(F)F)cc3)[C@@H](C)C2)c(F)c1.Cl` [Compound I-1-51]: in data set [1] (setting [3]), the IC85 worked out at 110 nM. Moreover, in data set [2], the “MS_h_% (remaining amount of compound after reaction, 0 minute = 100%)” value turned out to be 90%.
For `Cc1nc2ccccn2c1C(=O)NCc1ccc(N2CCN(c3ccc(OC(F)(F)F)cc3)[C@@H](C)C2)c(F)c1.Cl` [Compound I-1-52] the same measures were 5.4 nM and 84%.
For `CCOc1ccc(N2CCN(c3ccc(CNC(=O)c4c(CC)nc5ccc(Cl)cn45)cc3F)C[C@@H]2C)cc1F.Cl` [Compound I-1-53] the same measures were 37 nM and 65%.
As to `CCc1nc2ccc(Cl)cn2c1C(=O)NCc1ccc(N2CCN(c3ccc(OCC4CC4)cc3)[C@@H](C)C2)c(F)c1.Cl` [Compound I-1-54], the IC85 in data set [1] (setting [3]) amounted to 34 nM. For the same compound, the “MS_h_% (remaining amount of compound after reaction, 0 minute = 100%)” value in data set [2] came to 79%.
For `CCOc1ccc(N2CCN(c3ccc(CNC(=O)c4c(CC)nc5ccc(Cl)cn45)cc3F)C[C@@H]2C)cc1OC.Cl` [Compound I-1-55] the same measures were 690 nM and 84%.
Turning to `CCc1nc2ccc(Cl)cn2c1C(=O)NCc1ccc(N2CCN(c3ccc(OCC(C)(C)C)cc3)[C@@H](C)C2)c(F)c1.Cl` [Compound I-1-56], the IC85 in data set [1] (setting [3]) was determined as 22 nM. Further, the “MS_h_% (remaining amount of compound after reaction, 0 minute = 100%)” value in data set [2] is 60%.
